Source: patent US20130156865A1, “POTENTIATION INDUCED BY PDE4 INHIBITORS IN THE TREATMENT OF LEUKEMIA” (Chiesi Farmaceutici S.p.A., priority 2011, published 2013)
Entries after “also recorded” stand apart in the source; their conditions may differ.

What was measured:
[1] = tested on: Imatinib-sensitive (K562-SENS, LAMA-SENS, KCL22-SENS) and Imatinib-resistant (K562-RES, LAMA-RES, KCL22-RES and BAF3 p210-T315I) chronic myeloid leukemia (CML) …; assay: Apoptosis (sub-G1 propidium iodide or Annexin-V) with PDE-4 inhibitor plus ATO in CML cell lines; type: cell-based, human
Experimental: (§1) The Parental Acute Promyelocytic Leukemia (APL) cell line NB4 and the Arsenic resistant NB4-AsR cell line were seeded at 0.8×10^5 cells/mL of fresh RPMI 1640 medium (Sigma Aldrich), supplemented with 10% fetal calf serum, 2 mM L-glutamine, penicillin G (100 U/mL), streptomycin ([…]). Cells were pre-treated for 30 minutes with vehicle (DMSO), CHF-6001 (1 and 10 μM), Roflumilast (1 and 10 μM) or Piclamilast (1, and 50 μM) and then incubated with ATO at the indicated doses. After 72 hours cells were collected, stained with Annexin-V FITC (according to the manufacturer's recommendations—Bender MedSystems) and processed by flow cytometry (FACSCalibur, Becton Dickinson, San Josè, Calif.) to evaluate the percentage of apoptosis as described in Lunghi P et al., Leukemia. 2005; 19(2):234-44, which is incorporated herein by reference in its entirety.
The Imatinib-sensitive (K562-SENS, LAMA-SENS, KCL22-SENS) and Imatinib-resistant (K562-RES, LAMA-RES, KCL22-RES and BAF3 p210-T315I) chronic myeloid leukemia (CML) cell lines were cultured with the PDE-4 inhibitor and ATO as described in Example 1. After 72 hours cells were harvested, stained with Propidium Iodide to evaluate the percentage of cells with hypodiploid DNA content (sub-G1) or with Annexin-V FITC as described in Lunghi P et al Leukemia. 2005; 19(2):234-44, which is incorporated herein by reference in its entirety.

[2] = tested on: Acute Promyelocytic Leukemia (APL) cell line NB4 and Arsenic resistant NB4-AsR cell line; assay: Annexin-V apoptosis assay with PDE-4 inhibitor pre-treatment plus ATO in APL cells; type: cell-based, human
Experimental: as §1

[3] = tested on: NB4 and NB4-AsR Acute Promyelocytic Leukemia cell lines; assay: Myeloid differentiation (CD11b expression, NBT reduction test) with ATRA or low-dose ATO; type: cell-based, human
Experimental: NB4 and NB4-AsR were seeded at 0.8×10^5 cells/mL in presence of vehicle (DMSO) or the PDE-4 inhibitor at the indicated doses for 30 minutes and then incubated with 0.1 μM and 1 μM of all-trans retinoic acid ([…]) promoting cell differentiation (see Chen GQ et al., Blood. 1997; 89(9):3345-53, which is incorporated herein by reference in its entirety). After 72 hours of treatment, early and late stage of differentiation was evaluated. More specifically, expression of the cell surface CD11b, an early-expressed maturation marker, was measured by flow cytometry using fluorescein isothiocyanate (FITC)-conjugated anti-CD11b antibody (Sigma Chemical Co.) according to the manufacturer's protocol. Late stage differentiation of leukemic cells was detected using the microscopic nitroblue tetrazolium (NBT) reduction test (Chen GQ et al., vide supra).
This assay is conducted by counting the cells containing blue NBT formazan deposits, which are formed by reduction of the membrane permeable, water-soluble, yellow-colored, nitroblue tetrazolium (NBT) by superoxide anions O2. Over 300 cells were counted per sample, and variation in replicates was routinely within 10%.

[4] = tested on: LAMA-RES, NB4 and NB4-AsR cell lines; assay: C2/ATO-induced apoptosis (annexin V) in the presence of caspase inhibitors; type: cell-based, human; conditions: caspase inhibitors 25 μM, 1 hour pre-treatment; 24 hours; FIG. 4
Excerpt: On the Y-axis the histograms represent the percentage of apoptotic cells measured by Annexin V staining (% ANNEXIN V+). NEG indicates peptide control Cbz-Phe-Ala-fluoromethyl ketone (Z-FA-FMK), CASPASE-8 IN, specific caspase-8 inhibitor Cbz-Ile-Glu(Ome)-Thr-Asp(Ome)-fluoromethyl ketone (Z-IETD-FMK), CASPASE-9 IN, specific caspase-9 inhibitor Cbz-Leu-Glu(Ome)-His-Asp(Ome)-fluoromethyl ketone (Z-LEHD-FMK), PANCASPASE IN, pancaspase inhibitor Cbz-Val-Ala-Asp(Ome)-fluoromethyl ketone (Z-VAD-FMK); CTR, control; C2, compound C2; ATO, arsenic trioxide.
LAMA-RES, NB4 and NB4-AsR cell lines were pretreated with selective caspase inhibitors for 1 hour before adding C2 and/or ATO. After 24 hours the percentage of apoptotic cells was determined by the annexin V method. More specifically, the caspase inhibitors are: NEG peptide control Cbz-Phe-Ala-fluoromethyl ketone (Z-FA-FMK), CASPASE-8 inhibitor Cbz-Ile-Glu(Ome)-Thr-Asp(Ome)-fluoromethyl ketone (Z-IETD-FMK), CASPASE-9 inhibitor Cbz-Leu-Glu(Ome)-His-Asp(Ome)-fluoromethyl ketone (Z-LEHD-FMK), and the PANCASPASE inhibitor Cbz-Val-Ala-Asp(Ome)-fluoromethyl ketone (Z-VAD-FMK), all provided from Alexis (San Diego, Calif., USA). All caspase inhibitors were dissolved in DMSO, stocked in aliquots at −20° C., and used at the final concentration of 25 μM.

[5] = tested on: NB4 and NB4-AsR cell lines; assay: Myeloid marker panel (CD33, CD38, CD11b, CD14, CD15) and NBT reduction with C2/ATRA; type: cell-based, human
Experimental: On the Y-axis the histograms represent, for each cell line, the percentage of myeloid differentiation measured using a panel of myeloid markers (CD33, CD38, CD11b, CD15, CD14) and nitroblue tetrazolium reduction test (% NBT+). Vehicle indicates Dimethyl sulfoxide (DMSO); C2, compound C2; CTR, control; ATRA, all-trans retinoic acid.
NB4 e NB4-AsR cell lines were cultured with C2/ATRA for 72 hours, after which cells were harvested for determination of NBT reduction and expression of differentiation-associated surface antigens CD33, CD38, CD11b, CD14 and CD15. Cytofluorimetric analysis of surface antigen expression was performed using the following monoclonal antibodies all provided by Sigma Chemical: fluorescein isothiocyanate (FITC)-conjugated anti-CD33 antibody, (FITC)-conjugated anti-CD38 antibody, (FITC)-conjugated anti-CD11b antibody, (FITC)-conjugated anti-CD 14 antibody and (FITC)-conjugated anti-CD15 antibody. Briefly, each antibody was incubated at the proper dilution with cell samples in PBS containing 1% BSA for 30 minutes at room temperature. Cells were then washed and resuspended with PBS and analyzed by flow cytometer.

[6] = tested on: chronic lymphocytic leukemia (CLL) B-lymphocytes; conditions: in vitro; Mentz F et al., Br. J. Hematol. 1995; cited from earlier work

CS(=O)(=O)Nc1ccc(C(=O)O[C@@H](Cc2c(Cl)c[n+]([O-])cc2Cl)c2ccc(OC(F)F)c(OCC3CC3)c2)cc1OCC1CC1 [Compound C2, (-)-3-Cyclopropylmethoxy-4-methanesulfonylamino-benzoic acid 1-(3-cyclopropylmethoxy-4-difluoromethoxy-phenyl)-2-(3,5-dichloro-1-oxy-pyridin-4-yl)-ethyl ester]
potentiation of the proapoptotic effects of ATO (% sub-G1 or % Annexin V+) ([1]; C2 1 μM/10 μM + ATO 2 μM (ATO 1 μM in Baf3-T315I), 72 hours, P<0.001, P<0.05 in K562-RES, versus either mono-treatment, FIG. 2): potentiates the proapoptotic effects of ATO | effectiveness versus roflumilast or piclamilast in potentiating the proapoptotic effects of ATO ([1]; CML cell lines, same doses of comparator + ATO, P<0.001 to P<0.05): more effective than Roflumilast or Piclamilast | effectiveness versus roflumilast or piclamilast in potentiating the proapoptotic effects of ATO ([2]; APL cells incl. ATO-resistant, P<0.001 versus same doses of comparator + ATO, P<0.005 C2 1 μM versus comparator 10 μM): more effective than CHF 5152 (roflumilast) or CHF 5859 (piclamilast) | potentiation of the proapoptotic effects of ATO (% Annexin V+ cells) ([2]; C2 1 μM/10 μM + ATO 1 μM, 72 hours, P<0.001 versus either mono-treatment, FIG. 1): potentiates the proapoptotic effects of ATO | expression of the myeloid marker CD11b (% CD11b+) ([3]; 72 hours, FIG. 6): upregulates the expression of the myeloid marker CD11b | effectiveness versus Roflumilast or Piclamilast in potentiating the cytodifferentiating action of ATRA or ATO ([3]; ATO-sensitive or ATO-resistant APL cell lines, same doses of comparator, P<0.001 to P<0.01): more effective than Roflumilast or Piclamilast | potentiation of the cytodifferentiating action of ATRA and ATO ([3]; C2 1 μM/10 μM + ATRA or + ATO 1 μM, P<0.001 versus either mono-treatment, NB4 and NB4-AsR, 72 hours): potentiates the cytodifferentiating action of ATRA and ATO | enhancement of ATO-induced cytotoxicity and caspase dependence (% Annexin V+) [4]: strikingly enhances ATO-induced cytotoxicity in leukemia cells through a caspase-dependent mechanism | dose inducing CD38 and CD11b expression relative to piclamilast ([5]; ATO-sensitive or ATO-resistant acute promyelocytic leukemia cells): 5 fold lower | induction of the early myeloid markers CD38 and CD11b ([5]; C2 as mono-treatment, ATO-sensitive or ATO-resistant APL cells, 72 hours, FIG. 7): capable of inducing the expressions of the early myeloid markers CD38 and CD11b; also recorded: induces upregulation of the myeloid markers (CD38 and CD11b); also recorded: able to partially induce an early myeloid differentiation | enhancement of the cytodifferentiating action of ATRA ([5]; very low-dose ATRA, ATO-sensitive or ATO-resistant APL cell lines, 72 hours): enhances the cytodifferentiating action of very low-dose of ATRA

Cn1c(=O)c2[nH]cnc2n(C)c1=O [theophylline]
induction of apoptosis [6]: induce apoptosis
